From patent US12258327B2, “5-membered heteroaryl-containing aminopyridine compounds as EGFR inhibitors” (YUHAN CORPORATION, priority 2021, dated 2025)
Like-named read-outs stand apart in the source and are kept apart here.

Assays:
EGFR del19/T790M/C797S = EGFR del19/T790M/C797S (Homo sapiens, UniProt P00533, C797S/DEL746-750/T790M); assay: Biochemical EGFR kinase assay (Lance Ultra TR-FRET), triple mutant del19/T790M/C797S
How it was run: (§1)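 Kinase activity is measured by TR-FRET phosphopeptide detection. Compounds span 0.003 μM to 10 μM; the 1 h reaction at room temperature is quenched with EDTA, then labelled antibody (2 nM) is incubated 60 min before reading.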

EGFR L858R/T790M/C797S = EGFR L858R/T790M/C797S (Homo sapiens, UniProt P00533, C797S/L858R/T790M); assay: Biochemical EGFR kinase assay (Lance Ultra TR-FRET), triple mutant L858R/T790M/C797S
EGFR L858R/T790M/C797S, sequence (P00533 25-1210 T790M/C797S/L858R): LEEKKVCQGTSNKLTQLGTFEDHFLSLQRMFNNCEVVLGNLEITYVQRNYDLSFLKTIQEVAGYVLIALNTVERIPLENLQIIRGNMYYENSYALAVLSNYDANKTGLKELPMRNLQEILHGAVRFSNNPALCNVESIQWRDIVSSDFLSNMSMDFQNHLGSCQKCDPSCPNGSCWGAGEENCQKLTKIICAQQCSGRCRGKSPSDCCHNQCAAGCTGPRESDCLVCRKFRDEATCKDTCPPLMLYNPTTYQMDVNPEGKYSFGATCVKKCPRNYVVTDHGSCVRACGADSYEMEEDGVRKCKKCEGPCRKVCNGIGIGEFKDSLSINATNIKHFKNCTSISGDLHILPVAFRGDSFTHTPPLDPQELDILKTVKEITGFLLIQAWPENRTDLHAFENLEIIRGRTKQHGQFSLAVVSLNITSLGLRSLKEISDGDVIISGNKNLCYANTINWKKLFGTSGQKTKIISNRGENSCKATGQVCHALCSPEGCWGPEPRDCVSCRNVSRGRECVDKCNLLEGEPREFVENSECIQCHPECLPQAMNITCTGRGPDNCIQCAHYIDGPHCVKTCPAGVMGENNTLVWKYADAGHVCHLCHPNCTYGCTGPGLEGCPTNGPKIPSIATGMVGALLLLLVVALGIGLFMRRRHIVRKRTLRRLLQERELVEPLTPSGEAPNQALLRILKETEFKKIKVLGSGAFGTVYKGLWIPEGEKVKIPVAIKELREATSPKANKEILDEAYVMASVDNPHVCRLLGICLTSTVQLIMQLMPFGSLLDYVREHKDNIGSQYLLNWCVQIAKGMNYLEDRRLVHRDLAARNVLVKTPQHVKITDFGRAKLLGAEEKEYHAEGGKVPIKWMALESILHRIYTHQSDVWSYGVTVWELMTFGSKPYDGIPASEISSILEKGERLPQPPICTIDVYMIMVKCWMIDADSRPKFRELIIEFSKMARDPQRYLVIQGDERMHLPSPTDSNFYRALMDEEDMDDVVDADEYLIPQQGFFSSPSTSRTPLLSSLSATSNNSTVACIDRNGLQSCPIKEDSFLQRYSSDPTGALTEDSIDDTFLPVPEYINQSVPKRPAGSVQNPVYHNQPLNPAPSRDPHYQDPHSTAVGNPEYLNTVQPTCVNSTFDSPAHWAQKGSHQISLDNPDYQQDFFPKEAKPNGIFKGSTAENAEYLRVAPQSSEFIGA
How it was run: as §1

EGFR del19/C797S = EGFR del19/C797S (Homo sapiens, UniProt P00533, C797S/DEL746-750); assay: Biochemical EGFR kinase assay (Lance Ultra TR-FRET), double mutant del19/C797S
EGFR del19/C797S, sequence (P00533 with tags, fused parts or gaps DEL746-750/C797S): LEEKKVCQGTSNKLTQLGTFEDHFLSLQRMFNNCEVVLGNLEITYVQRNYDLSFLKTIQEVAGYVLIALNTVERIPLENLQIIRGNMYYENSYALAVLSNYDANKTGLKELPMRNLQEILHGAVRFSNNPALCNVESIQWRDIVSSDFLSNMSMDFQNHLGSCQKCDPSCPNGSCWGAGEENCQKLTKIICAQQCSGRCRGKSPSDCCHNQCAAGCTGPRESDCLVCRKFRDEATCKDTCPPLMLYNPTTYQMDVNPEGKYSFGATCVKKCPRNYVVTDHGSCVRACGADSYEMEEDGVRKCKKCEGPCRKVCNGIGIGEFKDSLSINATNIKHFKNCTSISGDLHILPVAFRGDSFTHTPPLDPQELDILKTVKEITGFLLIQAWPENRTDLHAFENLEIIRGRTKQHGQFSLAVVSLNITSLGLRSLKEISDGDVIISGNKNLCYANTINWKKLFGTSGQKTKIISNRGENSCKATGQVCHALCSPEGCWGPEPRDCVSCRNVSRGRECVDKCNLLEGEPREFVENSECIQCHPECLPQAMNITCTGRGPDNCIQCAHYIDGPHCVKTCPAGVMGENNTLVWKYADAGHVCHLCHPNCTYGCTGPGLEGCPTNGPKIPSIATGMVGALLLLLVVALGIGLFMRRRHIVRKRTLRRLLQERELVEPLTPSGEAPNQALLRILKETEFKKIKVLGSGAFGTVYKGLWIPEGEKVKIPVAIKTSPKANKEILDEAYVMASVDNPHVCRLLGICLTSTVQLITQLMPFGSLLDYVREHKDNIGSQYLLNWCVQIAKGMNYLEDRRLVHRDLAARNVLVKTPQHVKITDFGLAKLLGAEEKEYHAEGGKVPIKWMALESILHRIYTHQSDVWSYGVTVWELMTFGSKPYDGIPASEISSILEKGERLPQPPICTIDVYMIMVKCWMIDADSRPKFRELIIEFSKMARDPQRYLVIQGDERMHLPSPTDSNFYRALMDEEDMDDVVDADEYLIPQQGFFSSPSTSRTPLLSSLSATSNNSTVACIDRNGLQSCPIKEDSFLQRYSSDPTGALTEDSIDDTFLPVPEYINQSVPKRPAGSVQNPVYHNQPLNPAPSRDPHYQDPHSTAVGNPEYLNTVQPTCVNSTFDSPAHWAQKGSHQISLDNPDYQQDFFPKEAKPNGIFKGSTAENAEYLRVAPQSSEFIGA
How it was run: as §1

EGFR L858R/C797S = EGFR L858R/C797S (Homo sapiens, UniProt P00533, C797S/L858R); assay: Biochemical EGFR kinase assay (Lance Ultra TR-FRET), double mutant L858R/C797S
EGFR L858R/C797S, sequence (P00533 25-1210 C797S/L858R): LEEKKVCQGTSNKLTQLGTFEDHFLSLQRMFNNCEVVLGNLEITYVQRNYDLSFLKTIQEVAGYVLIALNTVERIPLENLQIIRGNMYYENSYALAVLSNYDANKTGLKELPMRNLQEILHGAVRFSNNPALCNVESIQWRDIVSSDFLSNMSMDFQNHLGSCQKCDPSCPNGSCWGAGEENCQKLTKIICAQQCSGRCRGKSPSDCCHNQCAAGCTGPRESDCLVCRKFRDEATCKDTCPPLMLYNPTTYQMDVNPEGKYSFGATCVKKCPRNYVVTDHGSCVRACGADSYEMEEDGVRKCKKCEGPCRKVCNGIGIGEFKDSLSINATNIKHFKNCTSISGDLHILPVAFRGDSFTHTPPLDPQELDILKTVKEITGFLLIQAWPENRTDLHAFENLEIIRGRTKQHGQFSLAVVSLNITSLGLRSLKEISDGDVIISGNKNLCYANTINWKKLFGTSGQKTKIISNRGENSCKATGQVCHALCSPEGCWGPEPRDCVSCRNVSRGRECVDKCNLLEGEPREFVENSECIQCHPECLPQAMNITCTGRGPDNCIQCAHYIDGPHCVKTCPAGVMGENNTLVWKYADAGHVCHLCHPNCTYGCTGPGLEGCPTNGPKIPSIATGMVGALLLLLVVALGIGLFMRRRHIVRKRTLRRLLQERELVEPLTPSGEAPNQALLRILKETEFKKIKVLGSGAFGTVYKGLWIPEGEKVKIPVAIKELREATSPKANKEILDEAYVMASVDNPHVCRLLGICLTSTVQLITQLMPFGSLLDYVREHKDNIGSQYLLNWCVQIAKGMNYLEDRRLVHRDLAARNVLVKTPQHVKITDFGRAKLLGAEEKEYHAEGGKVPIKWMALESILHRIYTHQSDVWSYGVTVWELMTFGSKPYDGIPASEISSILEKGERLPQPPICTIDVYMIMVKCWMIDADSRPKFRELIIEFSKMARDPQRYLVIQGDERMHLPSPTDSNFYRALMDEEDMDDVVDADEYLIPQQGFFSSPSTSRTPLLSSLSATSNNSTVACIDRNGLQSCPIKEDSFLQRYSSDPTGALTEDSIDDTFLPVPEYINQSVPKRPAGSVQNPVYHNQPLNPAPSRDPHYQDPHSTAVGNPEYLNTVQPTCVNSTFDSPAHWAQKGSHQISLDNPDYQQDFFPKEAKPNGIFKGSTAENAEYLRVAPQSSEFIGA
How it was run: as §1

EGFR wildtype (WT) = EGFR wildtype (WT) (Homo sapiens, UniProt P00533); assay: Biochemical EGFR kinase assay (Lance Ultra TR-FRET), wildtype
How it was run: as §1

[1] = IC50 del19/T790M/C797S, 100 μM ATP
[2] = Km ATP, read-out: IC50 del19/T790M/C797S, Km ATP
[3] = IC50 L858R/T790M/C797S, 100 μM ATP
[4] = Km ATP, read-out: IC50 L858R/T790M/C797S, Km ATP
[5] = Km ATP, read-out: IC50 del19/C797S, Km ATP
[6] = Km ATP, read-out: IC50 L858R/C797S, Km ATP
[7] = Km ATP, read-out: IC50 WT, Km ATP

EGFR del19/T790M/C797S, sequence (P00533 with tags, fused parts or gaps DEL746-750/T790M/C797S): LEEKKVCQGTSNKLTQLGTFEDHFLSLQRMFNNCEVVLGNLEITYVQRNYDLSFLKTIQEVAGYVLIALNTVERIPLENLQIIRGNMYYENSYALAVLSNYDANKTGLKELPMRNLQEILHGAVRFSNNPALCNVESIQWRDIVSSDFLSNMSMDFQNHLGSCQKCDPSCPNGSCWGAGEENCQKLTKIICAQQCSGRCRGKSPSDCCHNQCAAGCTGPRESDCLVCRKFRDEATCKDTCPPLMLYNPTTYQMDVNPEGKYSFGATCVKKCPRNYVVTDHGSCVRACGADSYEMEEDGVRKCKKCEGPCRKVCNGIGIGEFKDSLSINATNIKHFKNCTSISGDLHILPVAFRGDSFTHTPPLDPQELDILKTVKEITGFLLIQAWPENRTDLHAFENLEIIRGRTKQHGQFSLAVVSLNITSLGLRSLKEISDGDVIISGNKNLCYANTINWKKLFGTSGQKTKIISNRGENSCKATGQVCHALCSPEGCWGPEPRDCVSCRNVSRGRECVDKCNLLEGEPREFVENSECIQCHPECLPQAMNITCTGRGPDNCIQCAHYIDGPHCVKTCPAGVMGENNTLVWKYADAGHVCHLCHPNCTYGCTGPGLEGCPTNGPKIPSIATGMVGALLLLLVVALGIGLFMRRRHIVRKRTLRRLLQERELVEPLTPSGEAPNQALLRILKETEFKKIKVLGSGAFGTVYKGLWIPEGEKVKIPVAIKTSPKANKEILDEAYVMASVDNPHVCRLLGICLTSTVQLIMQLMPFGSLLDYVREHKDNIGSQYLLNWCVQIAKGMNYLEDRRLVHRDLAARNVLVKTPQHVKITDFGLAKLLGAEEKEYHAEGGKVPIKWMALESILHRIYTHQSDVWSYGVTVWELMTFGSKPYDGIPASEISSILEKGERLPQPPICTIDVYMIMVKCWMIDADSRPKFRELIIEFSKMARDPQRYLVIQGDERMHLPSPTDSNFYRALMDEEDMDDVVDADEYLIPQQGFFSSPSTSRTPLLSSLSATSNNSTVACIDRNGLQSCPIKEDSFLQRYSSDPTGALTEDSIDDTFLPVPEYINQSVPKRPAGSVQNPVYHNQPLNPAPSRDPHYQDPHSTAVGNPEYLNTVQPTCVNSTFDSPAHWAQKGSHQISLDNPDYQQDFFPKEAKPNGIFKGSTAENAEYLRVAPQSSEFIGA

Structure (SMILES)	IC50 (EGFR del19/T790M/C797S; [1]) [nM]	IC50 (EGFR del19/T790M/C797S; [2]) [nM]	IC50 (EGFR L858R/T790M/C797S; [3]) [nM]	IC50 (EGFR L858R/T790M/C797S; [4]) [nM]	IC50 (EGFR del19/C797S; IC50 del19/C797S, 100 μM ATP) [nM]	IC50 (EGFR del19/C797S; [5]) [nM]	IC50 (EGFR L858R/C797S; IC50 L858R/C797S, 100 μM ATP) [nM]	IC50 (EGFR L858R/C797S; [6]) [nM]	IC50 (EGFR wildtype (WT); IC50 WT, 100 μM ATP) [nM]	IC50 (EGFR wildtype (WT); [7]) [nM]
CC1(O)CCC(Nc2cc(Nc3ccnc(N4CC(O)C(F)(F)C4)n3)ncc2-c2ccn(C(F)F)n2)CC1 (centres unmarked) [Example 349, 1-(4-((5-(1-(Difluoromethyl)-1H-pyrazol-3-yl)-4-(((1s,4s)-4-hydroxy-4-methylcyclohexyl)amino)pyridin-2-yl)amino)pyrimidin-2-yl)-4,4-difluoropyrrolidin-3-ol]	1	2.4	2.8	0.3	276	53.7	304	77.2	> 10000	189
CC1(O)CCC(Nc2cc(Nc3ccnc(N4CCC(F)(F)C(O)C4)n3)ncc2-c2ccn(C(F)F)n2)CC1 (centres unmarked) [Example 350, 1-(4-((5-(1-(Difluoromethyl)-1H-pyrazol-3-yl)-4-(((1s,4s)-4-hydroxy-4-methylcyclohexyl)amino)pyridin-2-yl)amino)pyrimidin-2-yl)-4,4-difluoropiperidin-3-ol]	–	4.2	–	2.6	–	95.1	–	117	–	261
C[C@]1(O)CC[C@@H](Nc2cc(Nc3ccnc(N4CCC[C@H](O)C4)n3)ncc2-c2ccn(C(F)F)n2)CC1 [Example 351, (S)-1-(4-((5-(1-(Difluoromethyl)-1H-pyrazol-3-yl)-4-(((1s,4R)-4-hydroxy-4-methylcyclohexyl)amino)pyridin-2-yl)amino)pyrimidin-2-yl)piperidin-3-ol]	–	2.7	–	2.8	–	198	–	44.3	–	235
C[C@]1(O)CC[C@@H](Nc2cc(Nc3ccnc(N4CCC[C@@H](O)C4)n3)ncc2-c2ccn(C(F)F)n2)CC1 [Example 352, (R)-1-(4-((5-(1-(Difluoromethyl)-1H-pyrazol-3-yl)-4-(((1s,4S)-4-hydroxy-4-methylcyclohexyl)amino)pyridin-2-yl)amino)pyrimidin-2-yl)piperidin-3-ol]	–	7.3	–	4.8	–	653	–	105	–	457
Cn1nc(-c2cnc(Nc3ccnc(N4CCC(O)C(F)(F)C4)n3)cc2NC2CCC(C)(O)CC2)cc1C(F)(F)F (centres unmarked) [Example 353, 3,3-Difluoro-1-(4-((4-(((1s,4s)-4-hydroxy-4-methylcyclohexyl)amino)-5-(1-methyl-5-(trifluoromethyl)-1H-pyrazol-3-yl)pyridin-2-yl)amino)pyrimidin-2-yl)piperidin-4-ol]	0.9	0.7	0.8	0.3	252	133	275	15.7	> 10000	175
C[C@]1(O)CC[C@@H](Nc2cc(Nc3ccnc(-c4cnn(S(=O)(=O)C5CC5)c4)c3)ncc2-c2ccn(C(F)F)n2)CC1 [Example 354, (1s,4s)-4-((2-((2-(1-(Cyclopropylsulfonyl)-1H-pyrazol-4-yl)pyridin-4-yl)amino)-5-(1-(difluoromethyl)-1H-pyrazol-3-yl)pyridin-4-yl)amino)-1-methylcyclohexan-1-ol]	2	–	13.1	–	135	–	2540	–	> 10000	–
C[C@]1(O)CC[C@@H](Nc2nc(Nc3ccnc(-c4cnn(S(=O)(=O)C5CC5)c4)c3)ncc2-c2ccn(C(F)F)n2)CC1 [Example 355, (1s,4s)-4-((2-((2-(1-(Cyclopropylsulfonyl)-1H-pyrazol-4-yl)pyridin-4-yl)amino)-5-(1-(difluoromethyl)-1H-pyrazol-3-yl)pyrimidin-4-yl)amino)-1-methylcyclohexan-1-ol]	–	0.7	–	0.3	–	11	–	13.3	–	64.4
Cn1nc(-c2cnc(Nc3ccnc(-c4cnn(S(=O)(=O)C5CC5)c4)c3)nc2N[C@H]2CC[C@@](C)(O)CC2)cc1C(F)(F)F [Example 356, (1s,4s)-4-((2-((2-(1-(Cyclopropylsulfonyl)-1H-pyrazol-4-yl)pyridin-4-yl)amino)-5-(1-methyl-5-(trifluoromethyl)-1H-pyrazol-3-yl)pyrimidin-4-yl)amino)-1-methylcyclohexan-1-ol]	–	1.1	–	1.8	–	9.8	–	12.1	–	96.6
C[C@]1(O)CC[C@@H](Nc2nc(Nc3ccnc(-c4cnn(S(=O)(=O)C5CC5)c4)c3)ncc2-c2ccn(CC(F)F)n2)CC1 [Example 357, (1s,4s)-4-((2-((2-(1-(Cyclopropylsulfonyl)-1H-pyrazol-4-yl)pyridin-4-yl)amino)-5-(1-(2,2-difluoroethyl)-1H-pyrazol-3-yl)pyrimidin-4-yl)amino)-1-methylcyclohexan-1-ol]	–	0.2	–	0.4	–	5.2	–	8.4	–	46.2
COCn1ccc(-c2cnc(Nc3ccnc(-c4cnn(S(=O)(=O)C5CC5)c4)c3)nc2N[C@H]2CC[C@@](C)(O)CC2)n1 [Example 358, (1s,4s)-4-((2-((2-(1-(Cyclopropylsulfonyl)-1H-pyrazol-4-yl)pyridin-4-yl)amino)-5-(1-(methoxymethyl)-1H-pyrazol-3-yl)pyrimidin-4-yl)amino)-1-methylcyclohexan-1-ol]	–	0.2	–	0.3	–	2.3	–	3.7	–	39.6
C[C@]1(O)CC[C@@H](Nc2nc(Nc3ccnc(-c4cnn(S(=O)(=O)C5CC5)c4)c3)ncc2-c2ccn(CCC(F)(F)F)n2)CC1 [Example 359, (1s,4s)-4-((2-((2-(1-(Cyclopropylsulfonyl)-1H-pyrazol-4-yl)pyridin-4-yl)amino)-5-(1-(3,3,3-trifluoropropyl)-1H-pyrazol-3-yl)pyrimidin-4-yl)amino)-1-methylcyclohexan-1-ol]	–	0.6	–	1.6	–	15.4	–	18.3	–	208
C[C@]1(O)CC[C@@H](Nc2nc(Nc3ccnc(-c4cnn(S(=O)(=O)C5CC5)c4)c3)ncc2-c2ccn(CC(F)(F)F)n2)CC1 [Example 360, (1s,4s)-4-((2-((2-(1-(Cyclopropylsulfonyl)-1H-pyrazol-4-yl)pyridin-4-yl)amino)-5-(1-(2,2,2-trifluoroethyl)-1H-pyrazol-3-yl)pyrimidin-4-yl)amino)-1-methylcyclohexan-1-ol]	–	0.5	–	0.9	–	9.5	–	16.7	–	140
Cn1nc(-c2cnc(Nc3ccnc(-c4cnn(CC(F)F)c4)c3)nc2N[C@H]2CC[C@@](C)(O)CC2)cc1C(F)(F)F [Example 361, (1s,4s)-4-((2-((2-(1-(2,2-Difluoroethyl)-1H-pyrazol-4-yl)pyridin-4-yl)amino)-5-(1-methyl-5-(trifluoromethyl)-1H-pyrazol-3-yl)pyrimidin-4-yl)amino)-1-methylcyclohexan-1-ol]	–	0.5	–	1.1	–	14.2	–	20	–	685
C[C@]1(O)CC[C@@H](Nc2nc(Nc3ccnc(-c4cnn(CC(F)F)c4)c3)ncc2-c2ccn(C(F)F)n2)CC1 [Example 362, (1s,4s)-4-((2-((2-(1-(2,2-Difluoroethyl)-1H-pyrazol-4-yl)pyridin-4-yl)amino)-5-(1-(difluoromethyl)-1H-pyrazol-3-yl)pyrimidin-4-yl)amino)-1-methylcyclohexan-1-ol]	–	0.2	–	0.1	–	12.8	–	5	–	159
CC(C)Nc1nc(Nc2ccnc(-c3cnn(S(=O)(=O)C4CC4)c3)c2)ncc1-c1ccn(C(F)F)n1 [Example 363, N^2-(2-(1-(Cyclopropylsulfonyl)-1H-pyrazol-4-yl)pyridin-4-yl)-5-(1-(difluoromethyl)-1H-pyrazol-3-yl)-N^4-isopropylpyrimidine-2,4-diamine]	–	3.4	–	4.3	–	404	–	665	–	4270
O=S(=O)(C1CC1)n1cc(-c2cc(Nc3ncc(-c4ccn(C(F)F)n4)c(N[C@H]4CC[C@@H](CO)CC4)n3)ccn2)cn1 [Example 364, ((1s,4s)-4-((2-((2-(1-(Cyclopropylsulfonyl)-1H-pyrazol-4-yl)pyridin-4-yl)amino)-5-(1-(difluoromethyl)-1H-pyrazol-3-yl)pyrimidin-4-yl)amino)cyclohexyl)methanol]	–	0.4	–	0.8	–	7.9	–	9	–	55.6
O=S(=O)(C1CC1)n1cc(-c2cc(Nc3ncc(-c4ccn(CC(F)(F)F)n4)c(N[C@H]4CC[C@@H](F)CC4)n3)ccn2)cn1 [Example 366, N^2-(2-(1-(Cyclopropylsulfonyl)-1H-pyrazol-4-yl)pyridin-4-yl)-N^4-((1s,4s)-4-fluorocyclohexyl)-5-(1-(2,2,2-trifluoroethyl)-1H-pyrazol-3-yl)pyrimidine-2,4-diamine]	–	8.5	–	3.1	–	249	–	127	–	3320
